# Test results: US7498343B2, “Mycobacterial inhibitors” (priority 2002, dated 2009)
# Like-named read-outs stand apart in the source and are kept apart here.
# Assays:
# [1] = test system: M. Smegmatis ATCC607; assay: In-vitro method for testing compounds for anti-bacterial activity against strain M. smegmatis ATCC607 (Alamar Blue growth inhibition); type: cell-based; details: M. smegmatis ATCC607, pIC50 = -logIC50, IC50 in M, 50% inhibitory concentration for bacterial growth, 48 hours incubation
# Description: C.2. In-vitro Method for Testing Compounds for Anti-bacterial Activity Against Strain M. Smegmatis ATCC607. […] Subsequently, stock solutions (7.8×final test concentration) of compounds were added in 45 μl volumes to a series of duplicate wells in column 2 so as to allow evaluation of their effects on bacterial growth. Serial five-fold dilutions (45 μl in 180 μl) were made directly in the microtiter plates from column 2 to 11 using a customised robot system (Zymark Corp., Hopkinton, Mass.). Pipette tips were changed after every 3 dilutions to minimize pipetting errors with high hydrophobic compounds. Untreated control samples with (column 1) and without (column 12) inoculum were included in each microtiter plate. Approximately 250 CFU per well of bacteria inoculum, in a volume of 100 μl in 2.8×Mueller-Hinton broth medium, was added to the rows […]. The same volume of broth medium without inoculum was added to column 12 in row A to H. The cultures were incubated at 37° C. for 48 hours in a humidified 5% CO2 atmosphere (incubator with open air valve and continuous ventilation). At the end of incubation, two days after inoculation, the bacterial growth was quantitated fluorometrically. Therefore Alamar Blue (10×) was added to all wells in a volume of 20 μl and plates were incubated for another 2 hours at […] The fluorescence was read in a computer-controlled fluorometer (Cytofluor, Biosearch) at an excitation wavelength of 530 nm and an emission wavelength of 590 nm (gain 30). The % growth inhibition achieved by the compounds was calculated according to standard methods.
# [2] = test system: Mycobacterium tuberculosis (strain H37RV); assay: In-vitro method for testing compounds against M. tuberculosis (resazurin growth inhibition, MIC); type: cell-based; details: MIC data representing IC90's, 7 days incubation, resazurin fluorescence
# [3] = Mycobacterium tuberculosis, H37RV, 168 h, read-out: MIC
smiles,measurement,setting,value
COc1nc2ccc(Br)cc2cc1C(c1ccccc1)C(O)(CCN1CCCCC1)c1cccc2ccccc12 (centres unmarked) [Compound 145],pIC50,[1],5.3
same,MIC,[2]; [3],59.6 µg/mL
"COc1nc2cc(C)c(Br)cc2cc1C(c1ccccc1)C(O)(CCN(C)C)c1cccc2ccccc12 (single isomer, unassigned) [Compound 226]",pIC50,[1],5.5
same,MIC,[2],9.03 microgram/ml
CCN(CC)CCC(O)(c1ccccc1)C(c1ccccc1)c1cc2cc(Br)ccc2nc1OC (centres unmarked) [Compound 19],pIC50,[1],6.5
same,MIC,[2],6.72 microgram/ml
"COc1nc2ccc(Br)cc2cc1C(c1ccccc1)C(O)(CCN1CCOCC1)c1ccc2ccccc2c1 (single isomer, unassigned) [Compound 140]",pIC50,[1],5.8
same,MIC,[2],59.76 microgram/ml
COc1nc2ccc(Br)cc2cc1C(c1ccccc1)C(O)(CCN(C)C)c1cc(F)cc(F)c1 (centres unmarked) [Compound 118],pIC50,[1],9.1
same,MIC,[2],0.01 microgram/ml
"COc1nc2ccc(Cl)cc2cc1C(c1ccccc1)C(O)(CCN(C)C)c1ccccc1 (single isomer, unassigned) [Compound 31]",pIC50,[1],5.8
same,MIC,[2],7.31 microgram/ml
CCN(C)CCC(O)(c1cccc2ccccc12)C(c1ccccc1)c1cc2cc(Br)ccc2nc1OC (centres unmarked) [Compound 147],pIC50,[1],7.4
same,MIC,[2],11.36 microgram/ml
"COc1nc2ccc(Br)cc2cc1C(c1ccccc1)C(O)(CCCCN(C)C)c1ccc2ccccc2c1 (single isomer, unassigned) [Compound 191]",pIC50,[1],6.5
same,MIC,[2],1.85 microgram/ml
"CN(C)CCC(O)(c1ccccc1)C(c1ccccc1)c1cc2cc(Br)ccc2n(C)c1=O (single isomer, unassigned) [Compound 106]",pIC50,[1],6.2
same,MIC,[2],55.55 microgram/ml
COc1nc2ccc(Br)cc2cc1C(c1ccccc1)C(O)(CCN(C)C)c1ccc(N2CCOCC2)cc1 (racemic) [Compound 90],pIC50,[1],5.3
same,MIC,[2],59.06 microgram/ml
"COc1nc2cc(C)c(Br)cc2cc1C(c1ccccc1)C(O)(CCN(C)C)c1cccc(F)c1 (single isomer, unassigned) [Compound 216]",pIC50,[1],8.0
same,MIC,[2],0.85 microgram/ml
"CSc1nc2ccc(Br)cc2cc1C(c1ccccc1)C(O)(CCN(C)C)c1ccccc1 (single isomer, unassigned) [Compound 32]",pIC50,[1],7.4
same,MIC,[2],0.33 microgram/ml
"COc1nc2ccc(Br)cc2cc1C(c1ccccc1)C(O)(CCN1CCN(C)CC1)c1cccc2ccccc12 (single isomer, unassigned) [Compound 149]",pIC50,[1],5.1
same,MIC,[2],48.50 microgram/ml
"COc1nc2ccc(Br)cc2cc1C(c1ccccc1)C(O)(CCN(C)C)c1cccc(C(F)(F)F)c1 (single isomer, unassigned) [Compound 183]",pIC50,[1],8.3
same,MIC,[2],0.36 microgram/ml
"COc1nc2ccc(Br)cc2cc1C(c1ccccc1)C(O)(CCN(C)C)C1CCN(C(=O)c2ccccc2)CC1 (single isomer, unassigned) [Compound 202]",pIC50,[1],4.8
same,MIC,[2],48.98 microgram/ml
"COc1ccc2nc(OC)c(C(c3ccccc3)C(O)(CCN(C)C)c3ccccc3)cc2c1 (single isomer, unassigned) [Compound 34]",pIC50,[1],5.1
same,MIC,[2],45.66 microgram/ml
COc1nc2ccc(Br)cc2cc1C(c1ccccc1)C(O)(CCn1cncn1)c1cccc2ccccc12 (centres unmarked) [Compound 172],IC50,"[1]; Mycolicibacterium smegmatis, ATCC607, 48 h, read-out: pIC50 (converted)",2000 nM
same,MIC,[2]; [3],7.3 µg/mL
COc1nc2ccc(Br)cc2cc1C(c1ccccc1)C(O)(CCN1CCSCC1)c1ccccc1 (racemic) [Compound 55],pIC50,[1],5.1
same,MIC,[2],44.77 microgram/ml
"COc1nc2ccc(Br)cc2cc1C(c1ccccc1)C(O)(CCCN1CCCC1)c1ccc2ccccc2c1 (single isomer, unassigned) [Compound 133]",pIC50,[1],5.1
same,MIC,[2],59.56 microgram/ml
COc1nc2ccc(Br)cc2cc1C(c1ccccc1)C(O)(CCN1CCN(C)CC1)c1ccccc1 (racemic) [Compound 52],pIC50,[1],6.4
same,MIC,[2],7.06 microgram/ml
"COc1nc2ccc(Br)cc2cc1C(c1ccccc1)C(O)(CCN(C)C)c1cccs1 (single isomer, unassigned) [Compound 21]",pIC50,[1],5.4
same,MIC,[2],16.17 microgram/ml
"COc1nc2ccc(Br)cc2cc1C(c1ccccc1)C(O)(CCN(C)C)c1ccsc1 (single isomer, unassigned) [Compound 25]",pIC50,[1],5.2
same,MIC,[2],20.36 microgram/ml
"CN(C)CCC(O)(c1ccccc1)C(c1ccccc1)c1cc2cc(Br)ccc2nc1O (single isomer, unassigned) [Compound 59]",pIC50,[1],5.1
"COc1nc2ccc(Br)cc2cc1C(c1ccccc1)C(O)(CCN1CCOCC1)c1cccc2ccccc12 (single isomer, unassigned) [Compound 158]",pIC50,[1],5.3
same,MIC,[2],59.76 microgram/ml
"CN(C)CCC(O)(c1ccccc1)C(c1ccccc1)c1cc2cc(Br)ccc2nc1O (single isomer, unassigned) [Compound 60]",pIC50,[1],5.6
"COc1nc2ccc(Br)cc2cc1C(c1ccccc1)C(O)(CCCN1CCOCC1)c1ccc2ccccc2c1 (single isomer, unassigned) [Compound 161]",MIC,[2],61.16 microgram/ml
"COc1nc2ccc(Br)cc2cc1C(c1ccccc1)C(O)(CCn1ccnc1)c1cccc2ccccc12 (single isomer, unassigned) [Compound 187]",MIC,[2],57.85 microgram/ml
COc1nc2ccc(Br)cc2cc1C(c1ccccc1)C(O)(CCN1CCN(C)CC1)c1ccccc1 (racemic) [Compound 51],pIC50,[1],5.8
"CN(C)CCC(O)(c1ccccc1)C(c1ccccc1)c1cc2cc(Br)ccc2n2ccnc12 (single isomer, unassigned) [Compound 104]",pIC50,[1],6.6
COc1nc2ccc(Br)cc2cc1C(c1ccccc1)C(O)(CCN(C)C)c1cc(F)ccc1F (centres unmarked) [Compound 68],pIC50,[1],6.4
COc1nc2ccc(Br)cc2cc1C(c1ccccc1)C(O)(CCN(C)C)c1cccc(F)c1 (centres unmarked) [Compound 108],pIC50,[1],7.0
COc1nc2ccc(Br)cc2cc1C(c1ccccc1)C(O)(CCN(C)C)c1ccccc1 (centres unmarked) [Compound 4],pIC50,[1],5.7
"CN(C)CCC(O)(c1ccccc1)C(c1ccccc1)c1cc2cc(Br)ccc2n2ccnc12 (single isomer, unassigned) [Compound 105]",pIC50,[1],6.0
"COc1nc2ccc(Br)cc2cc1C(c1ccccc1)C(O)(CCN1CCOCC1)c1ccc2cc(Br)ccc2c1 (single isomer, unassigned) [Compound 177]",MIC,[2],67.65 microgram/ml
COc1nc2ccc(Br)cc2cc1C(c1ccccc1)C(O)(CCN(C)C)c1ccccc1 (centres unmarked) [Compound 1],pIC50,[1],7.3
"COc1nc2ccc(Br)cc2cc1C(c1ccccc1)C(O)(CCN1CCN(c2ncccn2)CC1)c1ccc2ccccc2c1 (single isomer, unassigned) [Compound 209]",MIC,[2],67.47 microgram/ml
COc1nc2ccc(Br)cc2cc1C(c1ccccc1)C(O)(CCN1CCCCC1)c1ccc2ccccc2c1 (centres unmarked) [Compound 128],MIC,[2],59.56 microgram/ml
COc1nc2ccc(Br)cc2cc1C(c1ccccc1)C(O)(CCN(C)C)c1ccccc1 (centres unmarked) [Compound 3],pIC50,[1],6.7
COc1nc2ccc(Br)cc2cc1C(c1ccccc1)C(O)(CCN(C)C)c1ccccc1 (centres unmarked) [Compound 2],pIC50,[1],6.8
